In publication PMC5218480 (PLoS ONE, 2017):

Tested on: MV-4-11 cells
Experiment: Gene expression microarray analysis (Affymetrix PrimeView) and GSEA
Format: cell-based, human
Design: RFU PODN (11730768_x_at) / Fold change /veh PODN (11730768_x_at) / RFU LINC00158 (11744669_a_at) / Fold change /veh LINC00158 (11744669_a_at) / RFU DUSP10 (11751237_a_at) / Fold change /veh DUSP10 (11751237_a_at) / RFU ID3 (11757404_x_at) / Fold change /veh ID3 (11757404_x_at) / RFU PLEKHG5 (11737974_s_at) / Fold change /veh PLEKHG5 (11737974_s_at) / RFU LRRC4B (11730491_at) / Fold change /veh LRRC4B (11730491_at) / RFU GIMAP4 (11747438_a_at) / Fold change /veh GIMAP4 (11747438_a_at) / RFU KRT8 (11758183_x_at) / Fold change /veh KRT8 (11758183_x_at) / RFU CNN1 (11734310_a_at) / Fold change /veh CNN1 (11734310_a_at) / RFU VPS37D (11726825_at) / Fold change /veh VPS37D (11726825_at) / RFU C10orf10 (11716522_x_at) / Fold change /veh C10orf10 (11716522_x_at) / RFU KIR2DL2 /// KIR2DL4 /// KIR2DL5A /// KIR2DL5B /// KIR2DS1 /// KIR2DS2 /// KIR2DS3 /// KIR2DS4 /// KIR3DL3 /// KIR3DL3 /// KIR3DS1 (11738374_at) / Fold change /veh KIR2DL2 /// KIR2DL4 /// KIR2DL5A /// KIR2DL5B /// KIR2DS1 /// KIR2DS2 /// KIR2DS3 /// KIR2DS4 /// KIR3DL3 /// KIR3DL3 /// KIR3DS1 (11738374_at) / RFU C1QL1 (11718748_at) / Fold change /veh C1QL1 (11718748_at) / RFU TMPRSS4 (11747572_a_at) / Fold change /veh TMPRSS4 (11747572_a_at) / RFU HAMP (11756126_x_at) / Fold change /veh HAMP (11756126_x_at) / RFU RNFT2 (11725882_a_at) / Fold change /veh RNFT2 (11725882_a_at) / RFU NR4A2 (11747474_a_at) / Fold change /veh NR4A2 (11747474_a_at) / RFU ABCC12 (11746883_a_at) / Fold change /veh ABCC12 (11746883_a_at) / RFU TMEM136 (11760407_x_at) / Fold change /veh TMEM136 (11760407_x_at) / RFU CLDN22 /// WWC2 (11732394_at) / Fold change /veh CLDN22 /// WWC2 (11732394_at) / RFU HLA-DPB1 (11760878_x_at) / Fold change /veh HLA-DPB1 (11760878_x_at) / RFU SPINT1 (11716480_a_at) / Fold change /veh SPINT1 (11716480_a_at) / RFU GAP43 (11754022_s_at) / Fold change /veh GAP43 (11754022_s_at) / RFU A4GNT (11735810_at) / Fold change /veh A4GNT (11735810_at) / RFU PRB3 (11715151_x_at) / Fold change /veh PRB3 (11715151_x_at) / RFU TUBB4B (11761932_at) / Fold change /veh TUBB4B (11761932_at) / RFU CAPN14 (11732068_a_at) / Fold change /veh CAPN14 (11732068_a_at) / RFU TMCC2 (11721928_a_at) / Fold change /veh TMCC2 (11721928_a_at) / RFU IRGQ (11745062_a_at) / Fold change /veh IRGQ (11745062_a_at) / RFU FAM174B (11720279_a_at) / Fold change /veh FAM174B (11720279_a_at) / RFU TMPRSS4 (11748680_a_at) / Fold change /veh TMPRSS4 (11748680_a_at) / RFU FAM212B (11763350_a_at) / Fold change /veh FAM212B (11763350_a_at) / RFU PLEKHG5 (11743358_a_at) / Fold change /veh PLEKHG5 (11743358_a_at) / RFU ZSCAN30 (11745921_a_at) / Fold change /veh ZSCAN30 (11745921_a_at) / RFU CMKLR1 (11741424_a_at) / Fold change /veh CMKLR1 (11741424_a_at) / RFU LOC101060620 /// MAPK8IP1 (11723275_at) / Fold change /veh LOC101060620 /// MAPK8IP1 (11723275_at) / RFU SPTSSB (11747773_x_at) / Fold change /veh SPTSSB (11747773_x_at) / RFU PRSS12 (11739890_at) / Fold change /veh PRSS12 (11739890_at) / RFU BIN1 (11741810_x_at) / Fold change /veh BIN1 (11741810_x_at) / RFU WNT11 (11732464_a_at) / Fold change /veh WNT11 (11732464_a_at) / RFU C10orf10 (11716521_a_at) / Fold change /veh C10orf10 (11716521_a_at) / RFU C5orf56 (11738089_at) / Fold change /veh C5orf56 (11738089_at) / RFU CYB561 (11721691_x_at) / Fold change /veh CYB561 (11721691_x_at) / RFU ANKRD19P (11752326_a_at) / Fold change /veh ANKRD19P (11752326_a_at) / RFU OR2T12 /// OR2T33 /// OR2T8 (11738714_s_at) / Fold change /veh OR2T12 /// OR2T33 /// OR2T8 (11738714_s_at) / RFU VCAN (11748164_a_at) / Fold change /veh VCAN (11748164_a_at) / RFU JSRP1 (11732532_at) / Fold change /veh JSRP1 (11732532_at) / RFU KRTAP10-11 (11738290_x_at) / Fold change /veh KRTAP10-11 (11738290_x_at) / RFU MYO3A (11730013_a_at) / Fold change /veh MYO3A (11730013_a_at) / RFU EBF3 (11725865_a_at) / Fold change /veh EBF3 (11725865_a_at) / RFU CAMK2N1 (11719241_x_at) / Fold change /veh CAMK2N1 (11719241_x_at) / RFU C5orf56 (11738088_a_at) / Fold change /veh C5orf56 (11738088_a_at) / RFU OLFML3 (11715873_a_at) / Fold change /veh OLFML3 (11715873_a_at) / RFU LOC100653217 /// NTM (11731650_a_at) / Fold change /veh LOC100653217 /// NTM (11731650_a_at) / RFU MAPK11 (11762145_a_at) / Fold change /veh MAPK11 (11762145_a_at) / RFU FIZ1 (11724087_x_at) / Fold change /veh FIZ1 (11724087_x_at) / RFU OASL (11726364_x_at) / Fold change /veh OASL (11726364_x_at) / RFU SOX15 (11748057_x_at) / Fold change /veh SOX15 (11748057_x_at) / RFU CD79A (11719716_a_at) / Fold change /veh CD79A (11719716_a_at) / RFU HIST1H1D (11736915_at) / Fold change /veh HIST1H1D (11736915_at) / RFU CASKIN2 (11723855_a_at) / Fold change /veh CASKIN2 (11723855_a_at) / RFU LOC730098 (11760151_x_at) / Fold change /veh LOC730098 (11760151_x_at) / RFU OR4N2 (11742367_at) / Fold change /veh OR4N2 (11742367_at) / RFU PRRT2 (11749266_a_at) / Fold change /veh PRRT2 (11749266_a_at) / RFU SNX32 (11753110_a_at) / Fold change /veh SNX32 (11753110_a_at) / RFU CDHR5 (11726645_a_at) / Fold change /veh CDHR5 (11726645_a_at) / RFU RCAN1 (11760418_a_at) / Fold change /veh RCAN1 (11760418_a_at) / RFU FAM167A (11723789_a_at) / Fold change /veh FAM167A (11723789_a_at) / RFU FAM26E (11764081_at) / Fold change /veh FAM26E (11764081_at) / RFU ISYNA1 (11749810_s_at) / Fold change /veh ISYNA1 (11749810_s_at) / RFU ACY1 (11761880_at) / Fold change /veh ACY1 (11761880_at) / RFU 11764098_at / Fold change /veh 11764098_at / RFU SAMD14 (11745864_x_at) / Fold change /veh SAMD14 (11745864_x_at) / RFU NPB (11741838_a_at) / Fold change /veh NPB (11741838_a_at) / RFU TMPRSS6 (11731388_a_at) / Fold change /veh TMPRSS6 (11731388_a_at) / RFU KRTAP10-2 (11738614_at) / Fold change /veh KRTAP10-2 (11738614_at) / RFU ARHGAP8 /// PRR5-ARHGAP8 (11727945_x_at) / Fold change /veh ARHGAP8 /// PRR5-ARHGAP8 (11727945_x_at) / RFU KRTAP5-7 /// NADSYN1 (11734609_at) / Fold change /veh KRTAP5-7 /// NADSYN1 (11734609_at) / RFU RASL12 (11751679_a_at) / Fold change /veh RASL12 (11751679_a_at) / RFU CDKN2B (11736163_a_at) / Fold change /veh CDKN2B (11736163_a_at) / RFU PRF1 (11729649_at) / Fold change /veh PRF1 (11729649_at) / RFU, ZNF638 /// ZNF638-IT1 / Fold change vs veh, ZNF638 /// ZNF638-IT1 / RFU, PANK3 / Fold change vs veh, PANK3 / RFU, SH3YL1 / Fold change vs veh, SH3YL1 / RFU, ZEB2 / Fold change vs veh, ZEB2 / RFU, NRIP1 / Fold change vs veh, NRIP1 / RFU, PTTG1IP / Fold change vs veh, PTTG1IP / RFU, CAPN2 / Fold change vs veh, CAPN2 / RFU, MED14 / Fold change vs veh, MED14 / RFU, SNORA58 / Fold change vs veh, SNORA58 / RFU, C1orf63 / Fold change vs veh, C1orf63 / RFU, LRRFIP1 / Fold change vs veh, LRRFIP1 / RFU, NDUFAF7 / Fold change vs veh, NDUFAF7 / RFU, SLC12A2 / Fold change vs veh, SLC12A2 / RFU, IBTK / Fold change vs veh, IBTK / RFU, ESF1 / Fold change vs veh, ESF1 / Fold change vs veh, TMEM50B / RFU, TAOK1 / Fold change vs veh, TAOK1 / RFU, ACBD3 / Fold change vs veh, ACBD3 / RFU, TMA16 / Fold change vs veh, TMA16 / RFU, RWDD3 / Fold change vs veh, RWDD3 / RFU, BCAT1 / Fold change vs veh, BCAT1 / RFU, EDEM3 / Fold change vs veh, EDEM3 / RFU, TMEM33 / Fold change vs veh, TMEM33 / RFU, WDR75 / Fold change vs veh, WDR75 / RFU, AHCTF1 / Fold change vs veh, AHCTF1 / RFU, TFRC / Fold change vs veh, TFRC / RFU, ZDHHC17 / Fold change vs veh, ZDHHC17 / RFU, NOM1 / Fold change vs veh, NOM1 / RFU, ARL8B / Fold change vs veh, ARL8B / RFU, ZBTB11 / Fold change vs veh, ZBTB11 / RFU, TAMM41 / Fold change vs veh, TAMM41 / RFU, KIAA1704 /// LOC100996395 / Fold change vs veh, KIAA1704 /// LOC100996395 / RFU, ING1 / Fold change vs veh, ING1 / RFU, TRMT61B / Fold change vs veh, TRMT61B / RFU, FUBP3 / Fold change vs veh, FUBP3 / RFU, TP53 / Fold change vs veh, TP53 / RFU, TNKS2 / Fold change vs veh, TNKS2 / RFU, ZFP14 / Fold change vs veh, ZFP14 / RFU, ACTR2 / Fold change vs veh, ACTR2 / RFU, PPP3R1 / Fold change vs veh, PPP3R1 / RFU, PIK3R1 / Fold change vs veh, PIK3R1 / RFU, HNRNPA1 / Fold change vs veh, HNRNPA1 / RFU, RNF170 / Fold change vs veh, RNF170 / RFU, ZNF28 / Fold change vs veh, ZNF28 / RFU, RNGTT / Fold change vs veh, RNGTT / RFU, OGT / Fold change vs veh, OGT / RFU, BRD1 / Fold change vs veh, BRD1 / RFU, MARS / Fold change vs veh, MARS / RFU, ZNF655 / Fold change vs veh, ZNF655 / RFU, FAHD1 / Fold change vs veh, FAHD1 / RFU, BDP1 / Fold change vs veh, BDP1 / RFU, LRRCC1 / Fold change vs veh, LRRCC1 / RFU, ARID1A / Fold change vs veh, ARID1A / RFU, ZNF146 / Fold change vs veh, ZNF146 / RFU, ZNF330 / Fold change vs veh, ZNF330 / RFU, GPN3 / Fold change vs veh, GPN3 / RFU, C9orf123 / Fold change vs veh, C9orf123 / RFU, N4BP2L2 / Fold change vs veh, N4BP2L2 / RFU, ARFIP1 / Fold change vs veh, ARFIP1 / RFU, FAM179B / Fold change vs veh, FAM179B / RFU, BCL10 / Fold change vs veh, BCL10 / RFU, UHRF1BP1L / Fold change vs veh, UHRF1BP1L / RFU, BET1 / Fold change vs veh, BET1 / RFU, CNOT2 / Fold change vs veh, CNOT2 / RFU, ZNF268 / Fold change vs veh, ZNF268 / Fold change vs veh, ZNF507 / RFU, DGCR2 / Fold change vs veh, DGCR2 / RFU, WDSUB1 / Fold change vs veh, WDSUB1 / Fold change vs veh, HSP90B1 /// MIR3652 / RFU, ADSS / Fold change vs veh, ADSS / RFU, GK / Fold change vs veh, GK / RFU, ZNF148 / Fold change vs veh, ZNF148 / RFU, TAF9 / Fold change vs veh, TAF9 / RFU, SLC1A5 / Fold change vs veh, SLC1A5 / RFU, SLMO2 / Fold change vs veh, SLMO2 / RFU, ABCC4 / Fold change vs veh, ABCC4 / RFU, LOC101060439 /// RAP1B / Fold change vs veh, LOC101060439 /// RAP1B / RFU, RFX7 / Fold change vs veh, RFX7 / RFU, GTPBP10 / Fold change vs veh, GTPBP10 / RFU, CNEP1R1 / Fold change vs veh, CNEP1R1 / RFU, BIVM-ERCC5 /// ERCC5 / Fold change vs veh, BIVM-ERCC5 /// ERCC5 / RFU, ILF3 / Fold change vs veh, ILF3 / RFU 11762660_at / Fold change /veh 11762660_at / RFU VCAN (11757783_s_at) / Fold change /veh VCAN (11757783_s_at) / RFU DDX43 (11728927_at) / Fold change /veh DDX43 (11728927_at) / RFU KRT8 (11758188_x_at) / Fold change /veh KRT8 (11758188_x_at) / RFU NKD1 (11759106_at) / Fold change /veh NKD1 (11759106_at) / RFU SRD5A1 (11742802_a_at) / Fold change /veh SRD5A1 (11742802_a_at) / RFU TPSAB1 /// TPSB2 (11721975_s_at) / Fold change /veh TPSAB1 /// TPSB2 (11721975_s_at) / RFU GSTM3 (11746129_a_at) / Fold change /veh GSTM3 (11746129_a_at) / RFU IL23R (11737362_x_at) / Fold change /veh IL23R (11737362_x_at) / RFU TMEM51 (11727254_a_at) / Fold change /veh TMEM51 (11727254_a_at) / RFU PIWIL2 (11732686_x_at) / Fold change /veh PIWIL2 (11732686_x_at) / RFU ORM1 (11744905_x_at) / Fold change /veh ORM1 (11744905_x_at) / RFU CCDC152 (11743942_at) / Fold change /veh CCDC152 (11743942_at) / RFU ECM1 (11717891_a_at) / Fold change /veh ECM1 (11717891_a_at) / RFU IL23R (11748794_a_at) / Fold change /veh IL23R (11748794_a_at) / RFU TNFAIP8L3 (11732012_x_at) / Fold change /veh TNFAIP8L3 (11732012_x_at) / RFU MBOAT4 (11741988_at) / Fold change /veh MBOAT4 (11741988_at) / RFU 11764193_at / Fold change /veh 11764193_at / RFU TMEM53 (11763286_at) / Fold change /veh TMEM53 (11763286_at) / RFU MAGEB2 (11727129_at) / Fold change /veh MAGEB2 (11727129_at) / RFU TMEM200A (11744735_a_at) / Fold change /veh TMEM200A (11744735_a_at) / RFU CCDC152 (11751479_a_at) / Fold change /veh CCDC152 (11751479_a_at) / RFU FAM211A (11726209_a_at) / Fold change /veh FAM211A (11726209_a_at) / RFU RGS16 (11746705_a_at) / Fold change /veh RGS16 (11746705_a_at) / RFU VCAN (11755009_s_at) / Fold change /veh VCAN (11755009_s_at) / RFU RHOB (11743442_s_at) / Fold change /veh RHOB (11743442_s_at) / RFU RGS16 (11720943_a_at) / Fold change /veh RGS16 (11720943_a_at) / RFU RGS16 (11720944_at) / Fold change /veh RGS16 (11720944_at) / RFU, VPS4B / Fold change vs veh, VPS4B / RFU, CREB1 / Fold change vs veh, CREB1 / RFU, DNAJC13 / Fold change vs veh, DNAJC13 / RFU, GNAQ / Fold change vs veh, GNAQ / RFU, CDK5R1 / Fold change vs veh, CDK5R1 / RFU, ZRANB3 / Fold change vs veh, ZRANB3 / RFU, CUL4A / Fold change vs veh, CUL4A / RFU, CCNY / Fold change vs veh, CCNY / RFU, UFL1 / Fold change vs veh, UFL1 / RFU, COG3 / Fold change vs veh, COG3 / RFU, DIAPH2 / Fold change vs veh, DIAPH2 / RFU, SKA2 / Fold change vs veh, SKA2 / RFU, AFF3 / Fold change vs veh, AFF3 / RFU, LMF1 / Fold change vs veh, LMF1 / RFU, IPO11 / Fold change vs veh, IPO11 / RFU, DFFB / Fold change vs veh, DFFB / RFU, FOXP1 / Fold change vs veh, FOXP1 / RFU, CARD8 / Fold change vs veh, CARD8 / RFU, STRN3 / Fold change vs veh, STRN3 / RFU, ADK / Fold change vs veh, ADK / RFU, RASSF2 / Fold change vs veh, RASSF2 / RFU, WIPF1 / Fold change vs veh, WIPF1 / RFU, LARP1B / Fold change vs veh, LARP1B / RFU, RASA1 / Fold change vs veh, RASA1 / RFU, RB1 / Fold change vs veh, RB1 / RFU, PPFIA1 / Fold change vs veh, PPFIA1 / RFU, MAT2A / Fold change vs veh, MAT2A / RFU, CCT5 / Fold change vs veh, CCT5 / RFU, WDR92 / Fold change vs veh, WDR92 / RFU, CUX1 / Fold change vs veh, CUX1 / RFU, TTC7A / Fold change vs veh, TTC7A / RFU, TMEM135 / Fold change vs veh, TMEM135 / RFU, DEPTOR / Fold change vs veh, DEPTOR / RFU, CPM / Fold change vs veh, CPM / RFU, DNAJB6 / Fold change vs veh, DNAJB6 / RFU, CACNA2D3 / Fold change vs veh, CACNA2D3 / RFU, DTX4 / Fold change vs veh, DTX4 / RFU, TFCP2 / Fold change vs veh, TFCP2 / RFU, GMCL1 /// GMCL1P1 / Fold change vs veh, GMCL1 /// GMCL1P1 / RFU, AEBP2 / Fold change vs veh, AEBP2 / RFU, SNHG1 /// SNORD22 /// SNORD25 /// SNORD26 /// SNORD27 /// SNORD28 /// SNORD29 /// SNORD31 / Fold change vs veh, SNHG1 /// SNORD22 /// SNORD25 /// SNORD26 /// SNORD27 /// SNORD28 /// SNORD29 /// SNORD31 / Fold change (Aza/veh), C12orf56 (ProbeSet 11735607_a_at) / Fold change (ACY-1035/veh), C12orf56 (ProbeSet 11735607_a_at) / Fold change (Aza/veh), FGFR1OP (ProbeSet 11751329_s_at) / Fold change (ACY-1035/veh), FGFR1OP (ProbeSet 11751329_s_at) / Fold change (Aza/veh), VPS36 (ProbeSet 11739960_a_at) / Fold change (ACY-1035/veh), VPS36 (ProbeSet 11739960_a_at) / RFU SYPL1 (11715823_x_at) / Fold change /veh SYPL1 (11715823_x_at) / RFU IGFBP7 (11715501_s_at) / Fold change /veh IGFBP7 (11715501_s_at) / RFU REEP3 (11722064_at) / Fold change /veh REEP3 (11722064_at) / RFU IGLL1 (11728026_x_at) / Fold change /veh IGLL1 (11728026_x_at): dose or concentration left out as unconfirmed
Conditions: MV-4-11 cells, 48 hours

Compound: Nc1ccc(-c2cccs2)cc1NC(=O)c1ccc2c(c1)cc(C1CC1)n2CCN1CCOCC1 [ACY-1035]
- RFU ID3 (11757404_x_at): 47.18 RFU
